Read-outs that look alike come from different tables or passages of the source.
How the values were obtained:
Assay type in all cases: cell-based, rat
N27 cells [1] = test: Cytotoxicity (LDH) assay after PFF exposure
Procedure: (§1) Cytotoxicity Assay. The lactate dehydrogenase (LDH) is a cytosolic enzyme that is released into the media during cellular stress and increased levels of cytotoxicity. The cytotoxicity assay was measured using reagents from the Pierce LDH Cytotoxicity Assay Kit (88954, Thermo). For the assay, 50 μL of media from each well after PFF exposure, followed by SENP-1 treatment, was put into wells of a new 96-well plate. The LDH reagents were prepared according to the protocol provided, and 50 μL of the LDH reagent was mixed into each well. The total 100 μL of media containing LDH and its reagent were incubated at 37° C. for 30 min, followed by the application of a stop solution. The mixture was analyzed using a spectrophotometer (SpectraMax M5e, Molecular devices) at 490 nm with a reference wavelength of 680 nm.
In this study, numerous commercially available SENP-1 inhibitors were tested for the recovery effects from preformed fibrils of alpha-synuclein (PFF)-induced PD models in vitro. The screening process includes several SENP-1 inhibitors, including specific SENP-1 inhibitors (e.g., SUMO-2 Aldehyde, Momordin lc, streptonigrin, hinokiflavonem, and siRNAs of SENP-1) and nonspecific SENP-1 inhibitors (e.g., oleanolic acid, gallic acid), in N27 dopaminergic cells after the exposure of PFF for 24 hrs.

N27 dopaminergic cells = test: Screening of SENP-1 inhibitors (LDH, MTT, ROS, Thioflavin-T) in PFF-induced PD model in vitro; details: N27 dopaminergic cells after exposure to PFF for 24 hrs
Excerpt: (§2) Cell Viability Assay. The MTT assay is a colorimetric assay that is based on the conversion of water-soluble MTT (3-(4,5-dimethylthiazol-2-yl)-2,5-diphenyltetrazolium bromide) into formazan crystal by mitochondrial dehydrogenase enzymes, soluble in 100% DMSO. The resulting solution is purple in color, and the color intensity is proportional to the viable cells for each well in a 96-well plate. A variety of SENP-1 inhibitors, such as SUMO-2 aldehyde, Momordin lc, streptonigrin, hinokiflavone, oleanolic acid and siRNA of SENP-1, were treated in N27 cells after PFF (1 μg/ml) exposure for 24 h. After adding 5 mM MTT dye to cells, the color intensity in MTT assays was measured using a spectrophotometer (SpectraMax M5e, Molecular devices, Dover, USA), at 570 nm with a reference wavelength of 630 nm. The cells were incubated with the MTT reagent (ab211091, Abcam) at 37° C. for 3 h, followed by solubilizing the formazan crystals in solution.
as §1
ROS Levels and Thioflavin-T Assessment. The reactive oxygen species (ROS) is a released byproduct during oxidative stress. On the other hand, thioflavin-T is an assay used to understand the level of protein aggregation that can be detrimental to cell survival. In order to assess the level of oxidative stress, all the SENP-1 inhibitors treated cells were incubated in media containing 5 μg/mL of the ROS reagent CellROX deep red reagent (C10422, Thermo Fisher Scientific) and 25 μg/mL of thioflavin-T reagent (CAS: 2390-54-7, Acros Organics) at 37° C. for 30 min. The cells were then washed 3 times with warm phosphate-buffered saline (PBS) without Ca^2+ or Mg^2+ (137 mM NaCl, 2.7 mM KCl, 4.3 mM Na2HPO4, and 1.47 mM KH2PO4), and several images from each well were collected using EVOS FL Cell Imaging Systems (Invitrogen, MA, USA). […] The intensity of red fluorescence corresponding to ROS levels and green labels corresponding to protein aggregation was analyzed by blinded raters using ImageJ. […]

N27 cells [2] = test: Cell viability (MTT) assay after PFF exposure; details: N27 cells after PFF (1 μg/ml) exposure for 24 h; compared to PFF only control
Excerpt: as §2
In this study, numerous commercially available SENP-1 inhibitors were tested for the recovery effects from preformed fibrils of alpha-synuclein (PFF)-induced PD models in vitro. […]

N27 cells [3] = test: ROS level (CellROX deep red) after PFF treatment; details: compared to PFF only control
Procedure: ROS Levels and Thioflavin-T Assessment. The reactive oxygen species (ROS) is a released byproduct during oxidative stress. On the other hand, thioflavin-T is an assay used to understand the level of protein aggregation that can be detrimental to cell survival. In order to assess the level of oxidative stress, all the SENP-1 inhibitors treated cells were incubated in media containing 5 μg/mL of the ROS reagent CellROX deep red reagent (C10422, Thermo Fisher Scientific) and 25 μg/mL of thioflavin-T reagent (CAS: 2390-54-7, Acros Organics) at 37° C. for 30 min. The cells were then washed 3 times with warm phosphate-buffered saline (PBS) without Ca^2+ or Mg^2+ (137 mM NaCl, 2.7 mM KCl, 4.3 mM Na2HPO4, and 1.47 mM KH2PO4), and several images from each well were collected using EVOS FL Cell Imaging Systems (Invitrogen, MA, USA). A minimum of 2 wells were dedicated to each group, and the experiments were repeated 3-4 times independently (total replicated: n=8-10/group). The intensity of red fluorescence corresponding to ROS levels and green labels corresponding to protein aggregation was analyzed by blinded raters using ImageJ.

| SMILES | cytotoxicity derived from PFF (LDH assay) (N27 cells [1]) | efficacy in preventing protein aggregation-mediated damage and reversing PFF-induced damage (LDH, MTT, ROS, Thioflavin-T assays) (N27 dopaminergic cells) | cell viability from PFF-mediated toxicity (MTT assay) (N27 cells [2]) | cytotoxicity derived from PFF (LDH assay) (N27 cells [1]; N27 cells, PFF treatment, compared to PFF only control) | level of ROS (N27 cells [3]) |
| --- | --- | --- | --- | --- | --- |
| O=c1cc(-c2ccc(Oc3c(O)cc4oc(-c5ccc(O)cc5)cc(=O)c4c3O)cc2)oc2cc(O)cc(O)c12 [Hinokiflavone, hinokiflavone] | significantly reduced the cytotoxicity |  |  |  |  |
| COC1=C(N)C(=O)c2nc(-c3nc(C(=O)O)c(C)c(-c4ccc(OC)c(OC)c4O)c3N)ccc2C1=O [Streptonigrin, streptonigrin] |  | clearly efficacious | significantly enhanced the cell viability | significantly reduced the cytotoxicity | reduced the level of ROS |
| O=C(O)c1cc(O)c(O)c(O)c1 [gallic acid] |  | did not show an efficacy |  |  |  |
| CC1(C)CC[C@]2(C(=O)O)CC[C@]3(C)C(=CC[C@@H]4[C@@]5(C)CC[C@H](O)C(C)(C)[C@@H]5CC[C@]43C)[C@@H]2C1 [oleanolic acid] |  | did not show an efficacy |  |  |  |

Source: patent publication US20260021167A1, “COMPOSITIONS AND METHODS FOR TREATING OR PREVENTING NEURODEGENERATIVE DISEASES” (Delaware State University, priority 2022, published 2026)
